# Laboratory results published in patent publication US20030170194A1, “Pharmaceutical and/or cosmetic composition containing an organosiloxane and a phospholipid” (priority 2000, published 2003).
# Assay type: physicochemical
# Settings: composition of 10% by weight phospholipid and 90% by weight hexamethyldisiloxane
compound,measurement,value
Clc1ccccc1C(c1ccccc1)(c1ccccc1)n1ccnc1 [clotrimazole],dissolves in higher concentration than in hexamethyldisiloxane alone,10 fold
